Laboratory results as given in patent US8273754B2, “Substituted 1H-pyrazolo[3,4-D]pyrimidine-6-amine compounds” (ArQule, Inc., priority 2008, dated 2012).
Read-outs that look alike come from different tables or passages of the source.

What was measured:
[1] = tested on: cancer cells; test: MTS cell growth inhibition assay (72 hours); format: cell-based
Outline: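 Cells in DMEM with 1% FBS, seeded 18 h, then compound-treated 72 h at 37 °C. Viability by MTS/PMS for 4 h, formazan absorbance at 492 nm; IC50 taken as concentration giving 50% absorbance drop, activity banded by percent inhibition.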

[2] = target: T1, FGFR2 (N549H) (Homo sapiens, UniProt P21802, N549H); test: fluorescent ELISA assay for inhibitors of FGFR2 kinase; format: biochemical; settings: Pyk2 peptide substrate, 60 minutes
T1 construct: purchased Millipore 14-742
T1 sequence (P21802 22-821 N549H): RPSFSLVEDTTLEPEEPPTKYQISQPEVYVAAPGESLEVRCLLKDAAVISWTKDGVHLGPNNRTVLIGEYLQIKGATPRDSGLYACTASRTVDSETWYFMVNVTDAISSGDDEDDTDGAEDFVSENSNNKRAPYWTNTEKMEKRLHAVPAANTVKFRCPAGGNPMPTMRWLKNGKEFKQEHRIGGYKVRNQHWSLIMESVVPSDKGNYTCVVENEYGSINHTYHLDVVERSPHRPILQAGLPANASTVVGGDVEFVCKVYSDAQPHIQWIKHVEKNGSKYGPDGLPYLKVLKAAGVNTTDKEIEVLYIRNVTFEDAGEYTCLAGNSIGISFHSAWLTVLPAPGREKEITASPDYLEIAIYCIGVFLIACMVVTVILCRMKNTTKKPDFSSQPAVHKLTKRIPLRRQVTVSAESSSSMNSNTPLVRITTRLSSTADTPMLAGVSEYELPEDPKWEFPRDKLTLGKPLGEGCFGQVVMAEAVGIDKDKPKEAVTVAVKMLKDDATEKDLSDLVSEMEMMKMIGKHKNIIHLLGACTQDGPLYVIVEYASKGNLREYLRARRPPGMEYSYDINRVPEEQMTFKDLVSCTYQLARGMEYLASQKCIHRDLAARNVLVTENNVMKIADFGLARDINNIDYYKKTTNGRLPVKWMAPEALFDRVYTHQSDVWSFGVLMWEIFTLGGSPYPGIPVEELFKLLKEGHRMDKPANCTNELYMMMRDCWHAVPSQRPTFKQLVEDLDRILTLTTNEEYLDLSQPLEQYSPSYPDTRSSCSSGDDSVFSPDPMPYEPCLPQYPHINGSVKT
Description: The enzymatic assays described herein are conducted according to the following procedures from commercially available reagents. In one non-limiting example, a fluorescent ELISA assay is used to identify and characterize inhibitors of FGFR2 kinase as described herein. This heterogeneous assay utilizes a biotinylated peptide with a tyrosine motif as a substrate and an anti-phospho-tyrosine antibody to measure phosphorylation of the substrate. The reaction is initiated by adding the test compound, 37 μM Pyk2 substrate (Midwest Biotech, Cat. #MBT2383), 12.5 μM ATP (Roche, Cat. #11 140 965 001) and 0.5 μM FGFR2 enzyme (Millipore, Cat. #14-742) sequentially to a non-binding polypropylene V-well plate. All reagents are in an assay buffer consisting of: 50 mM Tris-HCL, 0.02 mg/ml BSA, 10 mM MgCl2, 0.1 mM Na3VO4, 1 mM EGTA, 75 μM ATP, 0.01% NP-40, 2 mM DTT and 10% glycerol. The reaction is incubated for 60 minutes. As the reaction proceeds, FGFR2 phosphorylates tyrosines in the peptide. The reaction mixture is then moved to a blocked streptavidin-coated Nunc Maxisorb plate (coated with 100 ng streptavidin from Pierce (Cat. #15-124) per well), allowing for the capture of the biotinylated peptide. Peptides are captured for 30 minutes at room temperature, the phosphorylation of peptides continues during this phase. The reaction is stopped by washing the streptavidin-coated plate 6 times with TBST. Phosphorylated peptide is detected by adding anti-phospho-tyrosine antibody (Cell Signaling, Cat. #9411, diluted 1:3000) to the streptavidin-coated plate. Unbound anti-phospho-tyrosine antibody is removed by washing the streptavidin-coated plate 6 times with TBST. Secondary detection is performed using alkaline phosphatase tagged goat anti-mouse antibody (Pierce, Cat. #31320, diluted 1:4000) for one hour. Unbound secondary antibody is removed by washing the streptavidin-coated plate 6 times with TBST. The fluorescent readout is initiated by adding to the streptavidin-coated plate Promega Attophos substrate (Promega, Cat. #S1000, dilution=6 mg/10 ml), which, when dephosphorylated by alkaline phosphatase, emits a fluorescent signal of 595 nm in wavelength when excited by a signal of 400 nm in wavelength. The reading of the 595 nm signal is done on the Perkin Elmer Envision system. Compounds which prevent FGFR2 from phosphorylating the peptide result in a lower fluorescent signal. The 595 nm fluorescent signal is directly proportional to the activity of FGFR2. Thus, the inhibition of FGFR2 by compounds is monitored by the decrease in the 595 nm fluorescent signal.

[3] = Homo sapiens, DLD-1, 72 h, DLD-1 cells, read-out: DLD-1 MTS 72 hr at 10 μM
[4] = Homo sapiens, KATO III, 72 h, KATO III cells, read-out: KATO III MTS 72 hr at 10 μM
[5] = Homo sapiens, MDA-MB-231, 72 h, MDA-MB-231 cells, read-out: MDA-MB-231 MTS 72 hr at 10 μM
[6] = Homo sapiens, NCI-H1299, 72 h, NCI-H1299 cells, read-out: NCI-H1299 MTS 72 hr at 10 μM
[7] = PaCa-2, 72 h, PACA-2 cells, read-out: PACA-2 MTS 72 hr at 10 μM

Row | SMILES | inhibition at 10 µM [1, 3] [%] | inhibition at 10 µM [1, 4] [%] | inhibition at 10 µM [1, 5] [%] | inhibition at 10 µM [1, 6] [%] | inhibition at 10 µM [1, 7] [%] | IC50 [2] [µM]
1 | Nc1nc(NC2Cc3ccccc3N(S(=O)(=O)c3ccccc3Cl)C2)c2cn[nH]c2n1 (stereo not drawn) [Compound 52, N4-(1-(2-chlorophenylsulfonyl)-1,2,3,4-tetrahydroquinolin-3-yl)-1H-pyrazolo[3,4-d]pyrimidine-4,6-diamine] | < 50 | < 50 | < 50 | < 50 | < 50 | 1.2
2 | Nc1nc(NC2Cc3ccccc3N(S(=O)(=O)c3ccc(F)cc3Cl)C2)c2cn[nH]c2n1 (stereo not drawn) [Compound 53, N4-(1-(2-chloro-4-fluorophenylsulfonyl)-1,2,3,4-tetrahydroquinolin-3-yl)-1H-pyrazolo[3,4-d]pyrimidine-4,6-diamine] | < 50 | < 50 | < 50 | < 50 | < 50 | 0.41
3 | Cn1ccc(S(=O)(=O)N2CC(Nc3nc(N)nc4[nH]ncc34)Cc3ccccc32)n1 (stereo not drawn) [Compound 54, N4-(1-(1-methyl-1H-pyrazol-3-ylsulfonyl)-1,2,3,4-tetrahydroquinolin-3-yl)-1H-pyrazolo[3,4-d]pyrimidine-4,6-diamine] | < 50 | < 50 | < 50 | < 50 | < 50 | > 30
4 | Nc1nc(NC2Cc3ccccc3N(S(=O)(=O)c3cc(F)ccc3F)C2)c2cn[nH]c2n1 (stereo not drawn) [Compound 55, N4-(1-(2,5-difluorophenylsulfonyl)-1,2,3,4-tetrahydroquinolin-3-yl)-1H-pyrazolo[3,4-d]pyrimidine-4,6-diamine] | > 79 | 50 to 79 | 50 to 79 | < 50 | > 79 | 0.19
5 | CC(C)c1ccc(S(=O)(=O)N2CC(Nc3nc(N)nc4[nH]ncc34)Cc3ccccc32)cc1 (stereo not drawn) [Compound 56, N4-(1-(4-isopropylphenylsulfonyl)-1,2,3,4-tetrahydroquinolin-3-yl)-1H-pyrazolo[3,4-d]pyrimidine-4,6-diamine] | < 50 | < 50 | < 50 | < 50 | < 50 | > 30
6 | Nc1nc(NC2Cc3ccccc3N(S(=O)(=O)c3c(F)cccc3F)C2)c2cn[nH]c2n1 (stereo not drawn) [Compound 58, N4-(1-(2,6-difluorophenylsulfonyl)-1,2,3,4-tetrahydroquinolin-3-yl)-1H-pyrazolo[3,4-d]pyrimidine-4,6-diamine] | < 50 | < 50 | < 50 | < 50 | < 50 | 13
7 | COc1ccc(OC)c(CN2CC(Nc3nc(N)nc4[nH]ncc34)Cc3ccccc32)c1 (stereo not drawn) [Compound 121, N4-(1-(2,5-dimethoxybenzyl)-1,2,3,4-tetrahydroquinolin-3-yl)-1H-pyrazolo[3,4-d]pyrimidine-4,6-diamine] | < 50 | > 79 | < 50 | < 50 | < 50 | > 30
8 | Cc1cccc(CN2CC(Nc3nc(N)nc4[nH]ncc34)Cc3ccccc32)c1 (stereo not drawn) [Compound 122, N4-[1-(3-methylbenzyl)-1,2,3,4-tetrahydroquinolin-3-yl]-1H-pyrazolo[3,4-d]pyrimidine-4,6-diamine] | < 50 | 50 to 79 | < 50 | < 50 | 50 to 79 | 1.67
9 | COc1ccc(CN2CC(Nc3nc(N)nc4[nH]ncc34)Cc3ccccc32)cc1OC (stereo not drawn) [Compound 123, N4-[1-(3,4-dimethoxybenzyl)-1,2,3,4-tetrahydroquinolin-3-yl]-1H-pyrazolo[3,4-d]pyrimidine-4,6-diamine] | < 50 | < 50 | < 50 | < 50 | < 50 | > 30
10 | Nc1nc(NC2Cc3ccccc3N(Cc3ccccc3)C2)c2cn[nH]c2n1 (stereo not drawn) [Compound 125, N4-(1-benzyl-1,2,3,4-tetrahydroquinolin-3-yl)-1H-pyrazolo[3,4-d]pyrimidine-4,6-diamine] | < 50 | < 50 | < 50 | < 50 | < 50 | 17.2
11 | Nc1nc(NC2Cc3ccccc3N(Cc3cccc(Cl)c3)C2)c2cn[nH]c2n1 (stereo not drawn) [Compound 126, N4-[1-(3-chlorobenzyl)-1,2,3,4-tetrahydroquinolin-3-yl]-1H-pyrazolo[3,4-d]pyrimidine-4,6-diamine] | < 50 | 50 to 79 | < 50 | < 50 | 50 to 79 | 1.19
12 | COc1cccc(CN2CC(Nc3nc(N)nc4[nH]ncc34)Cc3ccccc32)c1 (stereo not drawn) [Compound 127, N4-[1-(3-methoxybenzyl)-1,2,3,4-tetrahydroquinolin-3-yl]-1H-pyrazolo[3,4-d]pyrimidine-4,6-diamine] | < 50 | 50 to 79 | < 50 | < 50 | 50 to 79 | 11
13 | Nc1nc(NC2Cc3ccccc3N(Cc3cccc(F)c3)C2)c2cn[nH]c2n1 (stereo not drawn) [Compound 128, N4-[1-(3-fluorobenzyl)-1,2,3,4-tetrahydroquinolin-3-yl]-1H-pyrazolo[3,4-d]pyrimidine-4,6-diamine] | < 50 | 50 to 79 | < 50 | < 50 | 50 to 79 | 2.23
14 | Cc1ccccc1CN1CC(Nc2nc(N)nc3[nH]ncc23)Cc2ccccc21 (stereo not drawn) [Compound 129, N4-[1-(2-methylbenzyl)-1,2,3,4-tetrahydroquinolin-3-yl]-1H-pyrazolo[3,4-d]pyrimidine-4,6-diamine] | < 50 | 50 to 79 | < 50 | < 50 | < 50 | 16.2
15 | CC(C)(C)c1ccc(CN2CC(Nc3nc(N)nc4[nH]ncc34)Cc3ccccc32)cc1 (stereo not drawn) [Compound 131, N4-[1-(4-tert-butylbenzyl)-1,2,3,4-tetrahydroquinolin-3-yl]-1H-pyrazolo[3,4-d]pyrimidine-4,6-diamine] | < 50 | < 50 | < 50 | < 50 | < 50 | > 30
16 | COc1ccccc1CN1CC(Nc2nc(N)nc3[nH]ncc23)Cc2ccccc21 (stereo not drawn) [Compound 132, N4-[1-(2-methoxybenzyl)-1,2,3,4-tetrahydroquinolin-3-yl]-1H-pyrazolo[3,4-d]pyrimidine-4,6-diamine] | < 50 | < 50 | < 50 | < 50 | < 50 | 22.3
